Values of other authors, collected in patent US20030171388A1, “Cosmetic or dermatological cream composition, the preparation and the use thereof” (priority 2003, published 2003).

System: liver cell cultures

SMILES: C[N+](C)(C)C[C@H](O)CC(=O)[O-] [L-carnitine, 3-carboxy-2-hydroxy-N,N,N-trimethyl-1-propanamium-hydroxide]
- effect on the membrane potential of the mitochondrion: did not cause a loss in the membrane potential of the mitochondrion
- prevention of cell deaths: able to prevent cell deaths
